Measured values reported in patent US4690920A, “Derivative of cephalosporanic acid and pharmaceutical composition comprising the same” (Kureha Kagaku Kogyo Kabushiki Kaisha, priority 1982, dated 1987).

What was measured:
Pseudomonas aeruginosa = experiment: Effect on the intestinal bacterial colonies: number of Pseudomonas aeruginosa in feces; type: in vivo, Pseudomonas aeruginosa (feces of female ICR mice); conditions: oral, 500 mg/kg/day for 2 days; feces one day after administration; before administration <3.0
Description: (§1) After collecting the feces of a group of mice, each of the compounds represented by the formula (I) was orally administered to each of the group for 2 continued days at a daily dose rate of 500 mg per kg body weight, and the feces were again collected one day after the administration. Each portion of the thus collected, two kinds of the feces was cultured at 25° C. or 37° C. in a variety of culture media for one to five days to see the state of growth of the following bacteria which are present habitually in the intestine of the mouse: Escherichia coli, Pseudomonas aeruginosa, a streptococcus bacterial species, a lactobacillis bacteria, Lactobacillus bifidus and a bacterioides bacteria.
(§2) Each of the compounds, respectively produced in Examples 1 to 6 was orally administered for two continued days at a daily dosage of 500 mg/kg body weight to each of five female ICR mice of a group after 6 weeks of birth.
(§3) Each of the two fecal specimens respectively collected before and after one day of the administration was diluted with 100 times by weight of an anaerobic diluent (a phosphoric buffer solution) and was ground in a mortar, and 0.1 ml of the ground material was smeared on each of the following culture media for the following bacteria and the thus inoculated culture media were incubated under the following conditions. Thereafter, the number of the following bacteria was determined on each culture medium.
NAC agar 37° C., for 1 day, […]

[1] = tested on: Escherichia coli IFO 12734; experiment: Anti-bacterial activity, agar plate dilution method (MIC), Escherichia coli; type: cell-based; conditions: 18 to 24 hours, 37° C.
Description: (§4) 3-1: The minimum growth-inhibiting concentration (MIC) of each of the compounds represented by the formula (I) was measured according to the standard procedures of Japan Society of Chemotherapy against each of the following bacterial species:
Escherichia coli, IFO 12734 and
(§5) Anti-bacterial activity of each of the compounds produced in Examples 1 to 6 was measured according to the standard procedures of Japan Society of Chemotherapy in agar plate dilution method as follows:
(§6) As a test bacterial species, Escherichia coli IFO 12734 and Staphylococcus aureus IAM 1011, and each strain was inoculated into Mueller-Hinton's culture medium for 18 to 48 hours at 37° C., and while using the thus cultured bacteria, each of the test bacterial liquid containing 10^6 cells in one ml was prepared.
(§7) Separately, after preparing each series of diluted aqueous solutions of each of the compounds produced in Examples 1 to 6, respectively, each of them was mixed in amount of 1/9 time by weight with the Mueller-Hinton's culture medium and each flat agar culture plate was prepared by using the thus formed mixture.

[2] = tested on: A species of Lactobacillus; experiment: Effect on the intestinal bacterial colonies: number of a species of Lactobacillus in feces; type: in vivo, Lactobacillus (feces of female ICR mice); conditions: oral, 500 mg/kg/day for 2 days; feces one day after administration; before administration 9.0
Description: as §1, §2, §3
a species of LBS agar 37° C., for 5 days, […]

[3] = tested on: Staphylococcus aureus IAM 1011; experiment: Anti-bacterial activity, agar plate dilution method (MIC), Staphylococcus aureus; type: cell-based; conditions: 18 to 24 hours, 37° C.
Description: as §4
Staphylococcus aureus, IAM 1011
as §5, §6, §7

Escherichia coli = experiment: Effect on the intestinal bacterial colonies: number of Escherichia coli in feces; type: in vivo, Escherichia coli (feces of female ICR mice); conditions: oral, 500 mg/kg/day for 2 days; feces one day after administration; before administration 7.0
Description: as §1, §2, §3
DHL agar 37° C., for 1 day, […]

Lactobacillus bifidus = experiment: Effect on the intestinal bacterial colonies: number of Lactobacillus bifidus in feces; type: in vivo, Lactobacillus bifidus (feces of female ICR mice); conditions: oral, 500 mg/kg/day for 2 days; feces one day after administration; before administration 8.0
Description: as §1, §2, §3
BS agar 37° C., for 5 days, […]

[4] = tested on: Staphylococcus aureus IAM 1011; experiment: Model test for verifying the activation in living body: growth-inhibition circle with/without rat liver S-9 mix; type: cell-based; conditions: 20 min at 37° C., then 18 hours at 37° C.; for Sign: diameter of growth-inhibiting circle as percentage of that due to compound of formula (II), with the addition of S-9 mix: with the addition of S-9 mix (rat liver homogenate)
Description: On each flat culture plate prepared by adding 10^8 cells/ml of a preliminarily cultured Staphylococcus aureus IAM 1011 into 50 times by weight of Mueller-Hinton's agar culture medium, a penicillin cup of 8 mm in diameter was placed, and into each cup 0.1 ml of each of the compounds represented by the formula (I) or 0.1 ml of a cultured product of each of the compounds represented by the formula (I) together with a rat liver homogenate (containing a metabolism-activating enzyme, referred to as S-9 mix) was introduced. The diameter of each growth-inhibition circle formed around the cup after incubating the flat culture plate with the cup for 18 hours at 37° C. was measured, and the thus obtained value was compared to the value obtained by the same procedures except for using the compound represented by the formula (II), the starting compound instead of each of the compounds represented by the formula (I).
As a metabolism-activating enzyme, a rat liver homogenate (S-9, manufactured by Oriental Yeast Co.) was used in the following composition (referred to as S-9 mix, hereinafter):
After mixing 0.1 ml of a solution of the compound to be tested with 0.9 ml of S-9 mix or 0.9 ml of 0.1M phosphoric acid buffer solution, the mixture was subjected to shaking culture for 20 min at 37° C. to prepare a test reaction solution for use in the following experiment.
Staphylococcus aureus IAM 1011 was inoculated to Mueller-Hinton's culture medium and the inoculum was cultured for 18 hours at 37° C. and after adjusting the number of the bacterial cells to 10^8 /ml of the culture medium, 50 times by weight of the Mueller-Hinton's agar culture medium were added to the cultured medium to prepare flat culture plates.
After placing a penicillin-cup of 8 mm in diameter on each of the thus prepared flat culture plates, 0.1 ml of the above-mentioned test reaction solution was introduced into the penicillin-cup, and after leaving the system for 2 hours at 4° C., the system was incubated for 18 hour at 37° C., and the diameter of the growth-inhibition circle around the cup on the culture plate was determined.
The thus obtained diameter of the growth-inhibiting circle due to each of the compounds produced respectively in Examples 1 to 6 was compared to that due to the compound repesente by the formula (II), substituted cephalosporanic acid by percentage, and the following signs were respectively given to the respective compounds as follows: […]

[5] = tested on: A species of Bacterioides; experiment: Effect on the intestinal bacterial colonies: number of a species of Bacterioides in feces; type: in vivo, Bacteroides (feces of female ICR mice); conditions: oral, 500 mg/kg/day for 2 days; feces one day after administration; before administration 8.1
Description: as §1, §2, §3
a species of NBGT agar 37° C., for 5 days,7 -Bacteroides anaer

[6] = tested on: A species of Streptococcus; experiment: Effect on the intestinal bacterial colonies: number of a species of Streptococcus in feces; type: in vivo, Streptococcus (feces of female ICR mice); conditions: oral, 500 mg/kg/day for 2 days; feces one day after administration; before administration 6.4
Description: as §1, §2, §3
a species of TATAC agar 37° C., for 1 day, […]

[7] = tested on: Escherichia coli IFO 12734; experiment: Effectiveness in treating experimental infectious disease, Escherichia coli; type: in vivo, mice (ddY-SPF) infected with Escherichia coli; conditions: of 20 mice; 1.4×10^8 cells i.p.; 500 mg/kg orally two times, just after and after 4 hours; all untreated died on second day
Description: (§8) Each of 20 mice of a group was infected by intraperitoneal inoculation of Escherichia coli IFO 12734 or Staphylococcus aureus IAM 1011, and just after or after 4 hours of the inoculation, each of the compounds represented by the formula (I) was orally administered to the inoculated mouse at a dose rate of 500 mg/kg body weight.
(§9) Cells in number of 1.4×10^8 of Escherichia coli IFO 12734 were intraperitoneally inoculated to each of 40 ddY-SPF mice, and each of 20 mice of the 40 mice was administered two times just after and after 4 hours of the inoculation with each 500 mg of the compound produced in Example 4 per kg of body weight orally, and the other 20 mice were kept untreated.

[8] = tested on: Staphylococcus aureus IAM 1011; experiment: Effectiveness in treating experimental infectious disease, Staphylococcus aureus; type: in vivo, mice (ddY-SPF) infected with Staphylococcus aureus; conditions: of 20 mice; 2.3×10^8 cells i.p.; 500 mg/kg orally two times; all untreated died on second day
Description: as §8, §9
Quite the same experiments as in (10-1) except for intraperitoneously inoculating Staphylococcus aureus IAM 1011 in number of 2.3×10^8instead of 1.4×10^8 cells of E. coli was carried out by administering two times with each 500 mg of the compound produced in Example 4. As a result, all the 20 mice inoculated and not administered died on the second day of inoculation, however, more than 70% of the inoculated and administered 20 mice were alive even on the 7th day of inoculation.

| MIC ([1]; IFO12734, Mueller-Hinton agar, read-out: Minimum concentration of inhibiting growth of Escherichia coli (MIC)) [mg/L] | MIC ([3]; IAM1011, Mueller-Hinton agar, read-out: Minimum concentration of inhibiting growth of Staphylococcus aureus (MIC)) [mg/L] | Structure (SMILES) | Log10 value of the number of bacterial cells/g of feces, Pseudomonas aeruginosa (Pseudomonas aeruginosa) | Log10 value of the number of bacterial cells/g of feces, a species of Lactobacillus [2] | Log10 value of the number of bacterial cells/g of feces, Escherichia coli (Escherichia coli) | Log10 value of the number of bacterial cells/g of feces, Lactobacillus bifidus (Lactobacillus bifidus) | Sign: diameter of growth-inhibiting circle as percentage of that due to compound of formula (II), with the addition of S-9 mix [4] | Sign: diameter of growth-inhibiting circle as percentage of that due to compound of formula (II), without adding S-9 mix [4] | Log10 value of the number of bacterial cells/g of feces, a species of Bacterioides [5] | Log10 value of the number of bacterial cells/g of feces, a species of Streptococcus [6] | Minimum concentration of inhibiting growth of Escherichia coli (MIC) ([1]; Mueller-Hinton agar) [microgram/ml] | mice alive on the 7th day of inoculation [7] | Minimum concentration of inhibiting growth of Staphylococcus aureus (MIC) ([3]; Mueller-Hinton agar) [microgram/ml] | inoculated and administered mice alive on the 7th day of inoculation [8] |
| --- | --- | --- | --- | --- | --- | --- | --- | --- | --- | --- | --- | --- | --- | --- |
| ≥ 100 | ≥ 100 | CO[C@@]1(NC(=O)CSCC#N)C(=O)N2C(C(=O)Nc3ccc(O)cc3)=C(CSc3nnnn3C)CS[C@@H]21 [Example 5, N-(4-hydroxyphenyl)-{7-beta-cyanomethylthioacetamido-7-alpha-methoxy-3-[(1-methyl-1H-tetrazol-5-yl)thio]methyl-3-cepheme-4-carboxylic}amide] | < 3.0 Log10 cells/g of feces | 9.0 Log10 cells/g of feces | 6.7 Log10 cells/g of feces | 8.2 Log10 cells/g of feces | + (1 to 33) | - (0) | 7.9 Log10 cells/g of feces | 6.6 Log10 cells/g of feces |  |  |  |  |
|  |  | COC(=O)CNC(=O)c1ccc(NC(=O)C2=C(CSc3nnnn3C)CSC3N2C(=O)C3(NC(=O)CSCC#N)OC)cc1 (stereo not drawn) [Example 4, N-(4-carbomethoxymethylcarbamoylphenyl)-{7-beta-cyanomethylthioacetamido-7-alpha-methoxy-3-[(1-methyl-1H-tetrazol-5-yl)thio]methyl-3-cepheme-4-carboxylic}amide] | < 3.0 Log10 cells/g of feces | 9.3 Log10 cells/g of feces | 7.0 Log10 cells/g of feces | 7.9 Log10 cells/g of feces | + (1 to 33) | - (0) | 8.3 Log10 cells/g of feces | 5.9 Log10 cells/g of feces | ≥ 100 | more than 16 mice | ≥ 100 | more than 70% |
